Assay results from patent US9271978B2 (Zenith Epigenetics Corp., priority 2012, dated 2016).

How the values were obtained:
[1] = target: T1, Brd4 bromodomain 1 (BRD4(1)) (Homo sapiens, UniProt O60885); experiment: Inhibition of tetra-acetylated histone H4 binding to Brd4 bromodomain 1 (TR-FRET); set-up: key: Active: Compounds with an IC50 value less than 30 μM were deemed to be active.; Not Active: Compounds with an IC50 value less than 30 μM were deemed to be active; details: tetra-acetylated histone H4 peptide, active = IC50 <30 μM
T1 construct: Illustrative results with the first bromodomain of Brd4; made in house; host or cells: E. coli BL21 (DE3)
Outline: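 N-terminally His-tagged bromodomains (200 nM), expressed in E. coli, were incubated with biotinylated tetra-acetylated histone H4 peptide (25-50 nM), Eu-cryptate streptavidin and XL665 anti-His antibody in HEPES pH 7.4 buffer with KF, 0.2% DMSO, 2 h at room temperature. Inhibition read as decreased 665/620 nm TR-FRET; IC50 from dose-response curves.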

[2] = system: c-myc; experiment: Inhibition of c-myc expression in MV4-11 cells (mRNA, real-time PCR); assay type: cell-based; set-up: key: Active: Compounds with an IC50 value less than 30 μM were deemed to be active.; Not Active: Compounds with an IC50 value less than 30 μM were deemed to be active; details: Human AML MV4-11 cells, 3 h incubation
Outline: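 MV4-11 cells (2.5×10^4) treated with compound or 0.1% DMSO for 3 h at 37 °C. c-myc mRNA measured by RT real-time PCR duplexed with cyclophilin. IC50 from dose–response curve.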

[3] = system: human AML MV-4-11 (CRL-9591) cells; experiment: Inhibition of cell proliferation in MV4-11 cells; assay type: cell-based; set-up: key: Active: Compounds with an IC50 value less than 30 μM were deemed to be active.; Not Active: Compounds with an IC50 value less than 30 μM were deemed to be active; details: human AML MV-4-11 cells, 72 h; active = IC50 <30 μM
Outline: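 Exponentially growing MV-4-11 cells (5×10^4/well) were treated immediately with two-fold dilutions of compound from 30 μM to 0.2 μM, in triplicate, for 72 h at 37° C, 5% CO2. Viability was measured by MTS absorbance at 490 nm after 3–4 h. Proliferation relative to DMSO after blank correction gave IC50.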

[4] = system: hIL-6 mRNA; experiment: Inhibition of hIL-6 mRNA transcription in U937 cells; assay type: cell-based, human; set-up: key: Active: Compounds with an IC50 value less than 30 μM were deemed to be active.; Not Active: Compounds with an IC50 value less than 30 μM were deemed to be active; details: LPS stimulation, active = IC50 <30 μM
Outline: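 U937 cells differentiated 3 days with 60 ng/mL PMA, pretreated 1 h with compound, then stimulated with 1 ug/mL E. coli LPS for 3 h at 37° C. hIL-6 mRNA quantified by one-step qRT-PCR, Ct normalized to internal control, expressed as fold induction relative to control.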

[5] = system: ApoA-I mRNA; experiment: Up-regulation of hApoA-1 mRNA transcription in Huh7 cells; assay type: cell-based, human; set-up: key: Active: Compounds with an EC170 value less than 30 μM were deemed to be active; details: 48 h treatment, ApoA-I mRNA by real-time PCR, Active = EC170 less than 30 μM
Outline: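 Huh7 cells treated with compound for 48 h. ApoA-I mRNA was then quantified in captured mRNA by one-step real-time RT-PCR. Fold induction calculated from Ct values relative to the matching DMSO control; EC170 is the concentration for 170% of control expression.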

Row | Compound | FRET activity (IC50 <30 μM) BRD4(1) [1] | c-myc activity (IC50 <30 μM) [2] | Cell Proliferation activity (IC50 <30 μM) [3] | IL-6 activity (IC50 <30 μM) [4] | ApoA-1 activity (EC170 <30 μM) [5]
1 | Cc1noc(C)c1-c1cc(N)c(=O)n(Cc2ccc(Cl)cc2F)c1 [Example 206, 3-amino-1-(4-chloro-2-fluorobenzyl)-5-(3,5-dimethylisoxazol-4-yl)pyridin-2(1H)-one] | Active | Active | Active | Active | Active
2 | CN1CCN(c2ccc(=O)n(Cc3ccccc3)n2)CC1=O [Example 179, 2-benzyl-6-(4-methyl-3-oxopiperazin-1-yl)pyridazin-3(2H)-one] | Active | Active | Active | Active | Active
3 | Cc1noc(C)c1-c1cc(NC(C)C)c(=O)n(Cc2ccccc2)c1 [Example 192, 1-benzyl-5-(3,5-dimethylisoxazol-4-yl)-3-(isopropylamino)pyridin-2(1H)-one] | Active | Active | Active | Active | Active
4 | Cc1onc(CO)c1-c1cc(N)c(=O)n(Cc2ccccc2)c1 [Example 189, 3-Amino-1-benzyl-5-(3-(hydroxymethyl)-5-methylisoxazol-4-yl)pyridin-2(1H)-one] | Active | Active | Active | Active | Active
5 | Cc1noc(C)c1-c1cc(N)c(=O)n(Cc2ccc(Cl)c(F)c2)c1 [Example 203, 3-amino-1-(4-chloro-3-fluorobenzyl)-5-(3,5-dimethylisoxazol-4-yl)pyridin-2(1H)-one] | Active | Active | Active | Active | Active
6 | Cc1noc(C)c1-c1cc(N)c(=O)n(Cc2ccc(Cl)cc2)n1 [Example 233, 4-amino-2-(4-chlorobenzyl)-6-(3,5-dimethylisoxazol-4-yl)pyridazin-3(2H)-one] | Active | Active | Active | Active | Active
7 | COc1cc(-c2c(C)noc2C)cn(Cc2ccccc2)c1=O [Example 210, 1-benzyl-5-(3,5-dimethylisoxazol-4-yl)-3-methoxypyridin-2(1H)-one] | Active | Active | Active | Active | Active
8 | Cc1noc(C)c1-c1cc(C#N)c(=O)n(Cc2ccccc2)c1 [Example 198, 1-Benzyl-5-(3,5-dimethylisoxazol-4-yl)-2-oxo-1,2-dihydropyridine-3-carbonitrile] | Active | Not Active | Not Active | Not Active | Active
